Results from US6436962B1, “Arylhydantoin derivatives and uses thereof” (Merck & Co., Inc., priority 1999, dated 2002).

What was measured:
[1] = biological target: T1, human alpha 1a adrenergic receptor (Homo sapiens, UniProt P35348); assay: Screening assay: alpha 1a adrenergic receptor binding ([125I]-HEAT competition); conditions: membranes from stably transfected human alpha 1a cell line (ATCC CRL 11140), 100 pM [125I]-HEAT
T1 sequence (P35348 1-466): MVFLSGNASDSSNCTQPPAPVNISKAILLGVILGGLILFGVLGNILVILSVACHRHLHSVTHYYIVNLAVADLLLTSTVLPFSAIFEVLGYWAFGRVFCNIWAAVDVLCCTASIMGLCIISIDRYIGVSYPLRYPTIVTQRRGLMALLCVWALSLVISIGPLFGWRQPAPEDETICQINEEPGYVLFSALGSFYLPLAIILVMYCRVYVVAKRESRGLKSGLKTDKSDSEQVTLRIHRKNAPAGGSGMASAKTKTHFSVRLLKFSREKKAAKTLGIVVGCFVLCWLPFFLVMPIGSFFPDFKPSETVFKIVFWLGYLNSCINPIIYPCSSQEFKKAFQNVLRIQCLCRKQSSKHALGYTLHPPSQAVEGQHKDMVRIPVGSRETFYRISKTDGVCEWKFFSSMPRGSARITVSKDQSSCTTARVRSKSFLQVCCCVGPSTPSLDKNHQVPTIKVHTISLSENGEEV
Method: Screening Assay: Alpha 1a Adrenergic Receptor Binding
These competition binding reactions (total volume=200 μl) contained 50 mM Tris-HCl pH. […] Reactions were incubated at room temperature for one hour with shaking. Reactions were filtered onto Whatman GF/C glass fiber filters with a Inotec 96 well cell harvester. Filters were washed three times with ice cold buffer and bound radioactivity was determined (Ki).

Structure (SMILES) | melting point [°C] | Ki [1] [µM]
N#CC1(c2ccccc2)CCN(CCCN2C(=O)NC(c3ccccc3)(c3ccccc3)C2=O)CC1 [Compound 15, 3-[3-(4-phenyl-4-cyanopiperidin-1-yl)propyl]-5,5-bis(phenyl)-imidazolin-2,4-dione] | 161 to 163 | < 0.02
Cc1ccc(C2(c3ccc(C)cc3)NC(=O)N(CCCCN3CCC4(CC3)C(=O)Cc3ccccc34)C2=O)cc1 [Compound 19, 3-{4-(2,3-dihydro-spiro[indeno-1,4′-piperidin]-2(3H)-on-1′-yl)butyl}-5,5-bis(4-methylphenyl)-imidazolin-2,4-dione] | 76 to 88 | < 0.02
Cc1ccc(C2(c3ccc(C)cc3)NC(=O)N(CCCN3CCC4(CC3)C(=O)N(C)c3ccccc34)C2=O)cc1 [Compound 22, 3-{3-(1-methyl-spiro[3H-indole-3,4′piperidin]-2(1H)-on-1′-yl)propyl}-5,5-bis(4-methylphenyl)-imidazolin-2,4-dione] | 127 to 135 | < 0.02

Now from value to compound, other results behind:

melting point [°C] | Structure (SMILES) | Ki [1] [µM]
164 to 165 | Cc1ccc(C2(c3ccc(C)cc3)NC(=O)N(CCCN3CCC(C#N)(c4ccccc4C)CC3)C2=O)cc1 [Compound 2, 3-{3-[4-(2-Methylphenyl)-4-cyanopiperidin-1-yl]propyl}-5,5-bis(4-methylphenyl)-imidazolin-2,4-dione] | < 0.02
170 to 172 | Cc1ccc(C2(c3ccc(C)cc3)NC(=O)N(CCCN3CCC4(CCc5ccccc54)CC3)C2=O)cc1 [Compound 18, 3-{3-(2,3-dihydro-spiro[indeno-1,4′-piperidin]-1′yl)propyl}-5,5-bis(4-methylphenyl)-imidazolin-2,4-dione] | < 0.02
201 to 205 | Cc1ccc(C2(c3ccc(C)cc3)NC(=O)N(CCCN3CCC4(CC3)Cc3ccccc3C4=O)C2=O)cc1 [Compound 20, 3-{3-(2,3-dihydro-spiro[indeno-2,4′-piperidin]-1(2H)-on-1-yl)propyl}-5,5-bis(4-methylphenyl)-imidazolin-2,4-dione] | < 0.02
63 to 65 | CCOC(=O)CN1C(=O)N(CCCN2CCC(C#N)(c3ccccc3C)CC2)C(=O)C1(c1ccc(C)cc1)c1ccc(C)cc1 [Compound 35, 1 -Ethoxycarbonylmethyl-3-{3-[4-(2-methylphenyl)-4-cyanopiperidin-1-yl]propyl}bis-5,5-(4-methylphenyl)-imidazolin-2,4-dione] | –
